We go through four compounds from ChEMBL document CHEMBL1153401, “Role of the hydrogen bonding heteroatom-Lys53 interaction between the p38alpha mitogen-activated protein (MAP) kinase and pyridinyl-substituted 5-membered heterocyclic ring inhibitors” (J Med Chem, 2009).

pIC50: −log10 of the molar value.

The assay deals with Mitogen-activated protein kinase 14 (Homo sapiens, UniProt Q16539). Put plainly: Inhibition of p38alpha MAP kinase.
Sequence of Mitogen-activated protein kinase 14 (Q16539 whole entry): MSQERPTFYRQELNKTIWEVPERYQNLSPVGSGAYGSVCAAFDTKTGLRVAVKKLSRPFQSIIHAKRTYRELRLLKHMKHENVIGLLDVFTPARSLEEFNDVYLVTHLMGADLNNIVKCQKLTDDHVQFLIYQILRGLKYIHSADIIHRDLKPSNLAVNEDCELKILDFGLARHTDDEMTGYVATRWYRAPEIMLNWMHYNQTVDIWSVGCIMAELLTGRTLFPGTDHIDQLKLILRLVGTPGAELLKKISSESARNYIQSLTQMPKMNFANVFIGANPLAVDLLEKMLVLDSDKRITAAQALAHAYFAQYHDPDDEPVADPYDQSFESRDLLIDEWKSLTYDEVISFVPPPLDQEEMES
In turn, `Fc1ccc(C2=C(c3ccncc3)CCC2)cc1` showed a pIC50 of 5.39.

`Fc1ccc(-c2[nH]ccc2-c2ccncc2)cc1` gave a pIC50 of 6.38.

On to `Fc1ccc(-c2occc2-c2ccncc2)cc1`, for which the pIC50 was 6.13.

`Fc1ccc(-c2nc[nH]c2-c2ccncc2)cc1` showed a pIC50 of 7.10.

The term pIC50 denotes the negative decadic logarithm of the IC50, by convention in mol/L.
